Assay results as given in US20250270707A1, “NON-TRIAZOLE IMIDAZOLINE AND AMIDE COMPOUNDS AND METHODS FOR INHIBITING CORROSION IN INDUSTRIAL WATER TREATMENT” (CHEMTREAT, INC., priority 2023, published 2025).

Columns and labels:
[1] = Corrosion rate by LPR sweep, copper coupons in synthetic water, 50° C., 1 ppm free chlorine after 0.5 hrs (Examples 1 and 2); conditions: for corrosion inhibition properties over the entire 18 hour period (in words) / corrosion resistance when free chlorine was added (in words): Example 2
Experimental: (§1) One liter samples of synthetic water were each dosed with the compositions in Table 1.
(§2) The apparatus used for the corrosion testing was a Gamry Multiport Corrosion Cell and Gamry Reference 600+potentiostat with multiplexor. Copper coupons (CDA110) were added to the sample cells containing neutral water (pH 7.5), and the cells were dosed with 50 ppm of scale inhibitor (co-polymer and 2-phosphonobutane-1,2,4-yricarboxylic acid) and heated to 50° C. and maintained at this temperature throughout the testing. The cells were continuously stirred at a speed of 350 rpm. A cylindrical working electrode was submerged into the test solutions, and an LPR sweep (linear polarization resistance) was performed every hour for 18 hours. After the 0.5 hrs mark, 1 ppm of free chlorine was dosed into the corrosion cell.
(§3) One liter samples of the synthetic water described above with respect to Example 1 were each dosed with the compositions in Table 5 and processed under conditions similar to Example 1.

[2] = Cl2 demand in the corrosion cell test (Examples 1 and 2); type: physicochemical
Experimental: as §1, §2, §3

CCCCCCCCCCCCN(CCC(=O)[O-])CCC(=O)O.[Na+] [SL, Sodium Lauriminodipropionate, reference compound]
CR Average (10-18 hrs) ([1]; 2 ppm): 0.067 mpy | CR Peak ([1]; 2 ppm): 0.932 mpy | corrosion rate ([1]; 2 ppm, 0 hrs): 0.0368 mpy | corrosion rate ([1]; 2 ppm, 1 hrs): 0.9317 mpy | corrosion rate ([1]; 2 ppm, 2 hrs): 0.4889 mpy | corrosion rate ([1]; 2 ppm, 3 hrs): 0.3498 mpy | corrosion rate ([1]; 2 ppm, 4 hrs): 0.2185 mpy | corrosion rate ([1]; 2 ppm, 5 hrs): 0.1644 mpy | corrosion rate ([1]; 2 ppm, 6 hrs): 0.1286 mpy | corrosion rate ([1]; 2 ppm, 7 hrs): 0.1128 mpy | corrosion rate ([1]; 2 ppm, 8 hrs): 0.0992 mpy | corrosion rate ([1]; 2 ppm, 9 hrs): 0.0910 mpy | corrosion rate ([1]; 2 ppm, 10 hrs): 0.0854 mpy | corrosion rate ([1]; 2 ppm, 11 hrs): 0.0779 mpy | corrosion rate ([1]; 2 ppm, 12 hrs): 0.0757 mpy | corrosion rate ([1]; 2 ppm, 13 hrs): 0.0685 mpy | corrosion rate ([1]; 2 ppm, 14 hrs): 0.0643 mpy | corrosion rate ([1]; 2 ppm, 15 hrs): 0.0613 mpy | corrosion rate ([1]; 2 ppm, 16 hrs): 0.0580 mpy | corrosion rate ([1]; 2 ppm, 17 hrs): 0.0543 mpy | corrosion rate ([1]; 2 ppm, 18 hrs): 0.0536 mpy | corrosion inhibition properties over the entire 18 hour period (in words) ([1]; 2 ppm): did not perform well | Cl2 Demand ([2]; 2 ppm): 0.7 mg/L

Sodium Cocoamphoacetate [SCAA]
CR Average (10-18 hrs) ([1]; 2 ppm): 0.017 mpy | CR Peak ([1]; 2 ppm): 0.197 mpy | corrosion rate ([1]; 2 ppm, 0 hrs): 0.0217 mpy | corrosion rate ([1]; 2 ppm, 1 hrs): 0.1969 mpy | corrosion rate ([1]; 2 ppm, 2 hrs): 0.0988 mpy | corrosion rate ([1]; 2 ppm, 3 hrs): 0.0761 mpy | corrosion rate ([1]; 2 ppm, 4 hrs): 0.0602 mpy | corrosion rate ([1]; 2 ppm, 5 hrs): 0.0506 mpy | corrosion rate ([1]; 2 ppm, 6 hrs): 0.0473 mpy | corrosion rate ([1]; 2 ppm, 7 hrs): 0.0347 mpy | corrosion rate ([1]; 2 ppm, 8 hrs): 0.0293 mpy | corrosion rate ([1]; 2 ppm, 9 hrs): 0.0257 mpy | corrosion rate ([1]; 2 ppm, 10 hrs): 0.0231 mpy | corrosion rate ([1]; 2 ppm, 11 hrs): 0.0212 mpy | corrosion rate ([1]; 2 ppm, 12 hrs): 0.0191 mpy | corrosion rate ([1]; 2 ppm, 13 hrs): 0.0177 mpy | corrosion rate ([1]; 2 ppm, 14 hrs): 0.0166 mpy | corrosion rate ([1]; 2 ppm, 15 hrs): 0.0156 mpy | corrosion rate ([1]; 2 ppm, 16 hrs): 0.0142 mpy | corrosion rate ([1]; 2 ppm, 17 hrs): 0.0139 mpy | corrosion rate ([1]; 2 ppm, 18 hrs): 0.0128 mpy | corrosion inhibition properties over the entire 18 hour period (in words) ([1]; 2 ppm): good corrosion inhibition properties | Cl2 Demand ([2]; 2 ppm): 1.0 mg/L

CCCCCCCC(=O)NCCN(CCOCC(=O)[O-])CC(=O)[O-].[Na+].[Na+] [DCyADAA, Disodium Capryloamphodiacetate]
CR Average (10-18 hrs) ([1]; 2 ppm): 0.271 mpy | CR Peak ([1]; 2 ppm): 2.854 mpy | corrosion rate ([1]; 2 ppm, 0 hrs): 0.0230 mpy | corrosion rate ([1]; 2 ppm, 1 hrs): 2.8540 mpy | corrosion rate ([1]; 2 ppm, 2 hrs): 1.5850 mpy | corrosion rate ([1]; 2 ppm, 3 hrs): 1.3860 mpy | corrosion rate ([1]; 2 ppm, 4 hrs): 0.5261 mpy | corrosion rate ([1]; 2 ppm, 5 hrs): 0.6207 mpy | corrosion rate ([1]; 2 ppm, 6 hrs): 0.5852 mpy | corrosion rate ([1]; 2 ppm, 7 hrs): 0.4766 mpy | corrosion rate ([1]; 2 ppm, 8 hrs): 0.4185 mpy | corrosion rate ([1]; 2 ppm, 9 hrs): 0.3747 mpy | corrosion rate ([1]; 2 ppm, 10 hrs): 0.3416 mpy | corrosion rate ([1]; 2 ppm, 11 hrs): 0.3181 mpy | corrosion rate ([1]; 2 ppm, 12 hrs): 0.2953 mpy | corrosion rate ([1]; 2 ppm, 13 hrs): 0.2800 mpy | corrosion rate ([1]; 2 ppm, 14 hrs): 0.2681 mpy | corrosion rate ([1]; 2 ppm, 15 hrs): 0.2352 mpy | corrosion rate ([1]; 2 ppm, 16 hrs): 0.2411 mpy | corrosion rate ([1]; 2 ppm, 17 hrs): 0.2394 mpy | corrosion rate ([1]; 2 ppm, 18 hrs): 0.2217 mpy | corrosion inhibition properties over the entire 18 hour period (in words) ([1]; 2 ppm): inferior corrosion inhibition properties | corrosion resistance when free chlorine was added (in words) ([1]; 2 ppm): substantial deterioration in corrosion resistance | Cl2 Demand ([2]; 2 ppm): 1.1 mg/L

O=C([O-])C(O)[C@H](O)[C@@H](O)[C@H](O)[C@H](O)CO.[Na+] (some centres unmarked) [Glucoheptonate, NaGlucoheptonate, reference compound]
CR Average (10-18 hrs) ([1]; 5 ppm): 0.278 mpy | CR Peak ([1]; 5 ppm): 2.670 mpy | corrosion rate ([1]; 5 ppm, 0 hrs): 0.074 mpy | corrosion rate ([1]; 5 ppm, 1 hrs): 2.670 mpy | corrosion rate ([1]; 5 ppm, 2 hrs): 2.004 mpy | corrosion rate ([1]; 5 ppm, 3 hrs): 1.238 mpy | corrosion rate ([1]; 5 ppm, 4 hrs): 0.784 mpy | corrosion rate ([1]; 5 ppm, 5 hrs): 0.536 mpy | corrosion rate ([1]; 5 ppm, 6 hrs): 0.504 mpy | corrosion rate ([1]; 5 ppm, 7 hrs): 0.449 mpy | corrosion rate ([1]; 5 ppm, 8 hrs): 0.357 mpy | corrosion rate ([1]; 5 ppm, 9 hrs): 0.331 mpy | corrosion rate ([1]; 5 ppm, 10 hrs): 0.311 mpy | corrosion rate ([1]; 5 ppm, 11 hrs): 0.297 mpy | corrosion rate ([1]; 5 ppm, 12 hrs): 0.288 mpy | corrosion rate ([1]; 5 ppm, 13 hrs): 0.280 mpy | corrosion rate ([1]; 5 ppm, 14 hrs): 0.274 mpy | corrosion rate ([1]; 5 ppm, 15 hrs): 0.269 mpy | corrosion rate ([1]; 5 ppm, 16 hrs): 0.267 mpy | corrosion rate ([1]; 5 ppm, 17 hrs): 0.260 mpy | corrosion rate ([1]; 5 ppm, 18 hrs): 0.257 mpy | Cl2 Demand ([2]; 5 ppm): 0.5 mg/L

Disodium Coco Imidazoline Dicarboxylate [DCIMDCC]
CR Average (10-18 hrs) ([1]; 2 ppm): 0.025 mpy | CR Peak ([1]; 2 ppm): 0.267 mpy | corrosion rate ([1]; 2 ppm, 0 hrs): 0.0395 mpy | corrosion rate ([1]; 2 ppm, 1 hrs): 0.2665 mpy | corrosion rate ([1]; 2 ppm, 2 hrs): 0.1537 mpy | corrosion rate ([1]; 2 ppm, 3 hrs): 0.0908 mpy | corrosion rate ([1]; 2 ppm, 4 hrs): 0.0856 mpy | corrosion rate ([1]; 2 ppm, 5 hrs): 0.0744 mpy | corrosion rate ([1]; 2 ppm, 6 hrs): 0.0600 mpy | corrosion rate ([1]; 2 ppm, 7 hrs): 0.0499 mpy | corrosion rate ([1]; 2 ppm, 8 hrs): 0.0409 mpy | corrosion rate ([1]; 2 ppm, 9 hrs): 0.0375 mpy | corrosion rate ([1]; 2 ppm, 10 hrs): 0.0339 mpy | corrosion rate ([1]; 2 ppm, 11 hrs): 0.0313 mpy | corrosion rate ([1]; 2 ppm, 12 hrs): 0.0283 mpy | corrosion rate ([1]; 2 ppm, 13 hrs): 0.0266 mpy | corrosion rate ([1]; 2 ppm, 14 hrs): 0.0243 mpy | corrosion rate ([1]; 2 ppm, 15 hrs): 0.0224 mpy | corrosion rate ([1]; 2 ppm, 16 hrs): 0.0209 mpy | corrosion rate ([1]; 2 ppm, 17 hrs): 0.0196 mpy | corrosion rate ([1]; 2 ppm, 18 hrs): 0.0188 mpy | Cl2 Demand ([2]; 2 ppm): 0.9 mg/L

CCCCCCCC(=O)NCCN(CCOCCC(=O)[O-])CCC(=O)[O-].[Na+].[Na+] [DCADPP, Disodium Capryloamphodipropionate]
CR Average (10-18 hrs) ([1]; 2 ppm): 0.304 mpy | CR Peak ([1]; 2 ppm): 2.169 mpy | corrosion rate ([1]; 2 ppm, 0 hrs): 0.0293 mpy | corrosion rate ([1]; 2 ppm, 1 hrs): 2.1690 mpy | corrosion rate ([1]; 2 ppm, 2 hrs): 1.4770 mpy | corrosion rate ([1]; 2 ppm, 3 hrs): 1.3090 mpy | corrosion rate ([1]; 2 ppm, 4 hrs): 0.6705 mpy | corrosion rate ([1]; 2 ppm, 5 hrs): 0.6007 mpy | corrosion rate ([1]; 2 ppm, 6 hrs): 0.6353 mpy | corrosion rate ([1]; 2 ppm, 7 hrs): 0.5403 mpy | corrosion rate ([1]; 2 ppm, 8 hrs): 0.4352 mpy | corrosion rate ([1]; 2 ppm, 9 hrs): 0.3962 mpy | corrosion rate ([1]; 2 ppm, 10 hrs): 0.3671 mpy | corrosion rate ([1]; 2 ppm, 11 hrs): 0.3426 mpy | corrosion rate ([1]; 2 ppm, 12 hrs): 0.3293 mpy | corrosion rate ([1]; 2 ppm, 13 hrs): 0.3130 mpy | corrosion rate ([1]; 2 ppm, 14 hrs): 0.2994 mpy | corrosion rate ([1]; 2 ppm, 15 hrs): 0.2826 mpy | corrosion rate ([1]; 2 ppm, 16 hrs): 0.2749 mpy | corrosion rate ([1]; 2 ppm, 17 hrs): 0.2691 mpy | corrosion rate ([1]; 2 ppm, 18 hrs): 0.2604 mpy | corrosion inhibition properties over the entire 18 hour period (in words) ([1]; 2 ppm): inferior corrosion inhibition properties | corrosion resistance when free chlorine was added (in words) ([1]; 2 ppm): substantial deterioration in corrosion resistance | Cl2 Demand ([2]; 2 ppm): 1.0 mg/L

CCCCCCCCCCCC(=O)NCCN(CCOCC(=O)[O-])CC(=O)[O-].[Na+].[Na+] [DLADAA, Disodium Lauroamphodiacetate]
CR Average (10-18 hrs) ([1]; 2 ppm): 0.036 mpy | CR Peak ([1]; 2 ppm): 0.392 mpy | corrosion rate ([1]; 2 ppm, 0 hrs): 0.0175 mpy | corrosion rate ([1]; 2 ppm, 1 hrs): 0.3923 mpy | corrosion rate ([1]; 2 ppm, 2 hrs): 0.3065 mpy | corrosion rate ([1]; 2 ppm, 3 hrs): 0.2159 mpy | corrosion rate ([1]; 2 ppm, 4 hrs): 0.1420 mpy | corrosion rate ([1]; 2 ppm, 5 hrs): 0.1385 mpy | corrosion rate ([1]; 2 ppm, 6 hrs): 0.1059 mpy | corrosion rate ([1]; 2 ppm, 7 hrs): 0.0894 mpy | corrosion rate ([1]; 2 ppm, 8 hrs): 0.0705 mpy | corrosion rate ([1]; 2 ppm, 9 hrs): 0.0631 mpy | corrosion rate ([1]; 2 ppm, 10 hrs): 0.0512 mpy | corrosion rate ([1]; 2 ppm, 11 hrs): 0.0461 mpy | corrosion rate ([1]; 2 ppm, 12 hrs): 0.0419 mpy | corrosion rate ([1]; 2 ppm, 13 hrs): 0.0378 mpy | corrosion rate ([1]; 2 ppm, 14 hrs): 0.0347 mpy | corrosion rate ([1]; 2 ppm, 15 hrs): 0.0304 mpy | corrosion rate ([1]; 2 ppm, 16 hrs): 0.0282 mpy | corrosion rate ([1]; 2 ppm, 17 hrs): 0.0262 mpy | corrosion rate ([1]; 2 ppm, 18 hrs): 0.0242 mpy | corrosion inhibition properties over the entire 18 hour period (in words) ([1]; 2 ppm): good corrosion inhibition properties | Cl2 Demand ([2]; 2 ppm): 0.7 mg/L
